In patent publication US8324132B2, “Mixture and method for controlling undesired vegetation” (E. I. du Pont de Nemours and Company, priority 2010, dated 2012):

Tests used:
Assay type in all cases: in vivo
[1] = tested on: bermudagrass (Cynodon dactylon, CYNDA); assay: Test D field plots: bermudagrass phytotoxic response
Source text: (§1) In the following Tests C through E, Colby's equation was used to calculate the expected additive herbicidal effect of nicosulfuron and glyphosate alone and in combination. Colby's equation (S. R. Colby, “Calculating Synergistic and Antagonistic Responses of Herbicide Combinations,” Weeds, 15(1), pp 20-22 (1967)) calculates the expected additive effect of herbicidal mixtures, and for two active ingredients is of the form: Pa+b=Pa+Pb−(PaPb/100) • wherein Pa±b is the percentage effect of the mixture expected from additive contribution of the individual components, • Pa is the observed percentage effect of the first active ingredient at the same use rate as in the mixture, and • Pb is the observed percentage effect of the second active ingredient at the same use rate as in the mixture.
(§2) For mixtures comprising nicosulfuron, metsulfuron-methyl and glyphosate the expected herbicidal effect was calculated based on the combination of nicosulfuron and metsulfuron-methyl providing observed herbicidal effect Pa and glyphosate providing observed herbicidal effect Pb in the Colby Equation. Plant responses to components Pa and Pb range from zero to 100% where zero is no observed response and 100% is complete response (i.e. plant death). Mixtures of herbicides were tested for their ability to express synergism (enhanced weed control) or antagonism (improved tolerance) at several locations in the United States. In the following Tests glyphosate was provided by the potassium salt of glyphosate. Crop phytotoxic response (% phyto) and weed control efficacy (% control) were visually evaluated using a 0-100 scale where zero is no visible response and 100 is plant death. In the following Tables “DAA” means days after application and “g a.i./ha” means grams active ingredient per hectare.
(§3) Herbicides and herbicide mixtures were applied to field plots of bermudagrass (Cynodon dactylon, CYNDA) near Lena, Miss. and Paris, Ark. to control knotroot foxtail (Setaria geniculata [Lam.] Beauv., SETGE) approximately one week after the bermudagrass had been cut and harvested. All herbicides and herbicide mixtures were formulated in water containing 0.25% (vol/vol) non-ionic surfactant (“NIS” provided by INDUCE®) and applied to bermudagrass stubble as a spray mixture using a backpack sprayer pressurized with CO2.

[2] = tested on: dormant bermudagrass (Cynodon dactylon, CYNDA); assay: Test E field plots: dormant bermudagrass phytotoxic response
Source text: as §1, §2
(§4) Herbicides and herbicide mixtures were applied to field plots of dormant bermudagrass (Cynodon dactylon, CYNDA) near Eatonton, Ga. on Mar. 20, 2010 and Decatur, Tex. on Mar. 30, 2010 to control rescuegrass (Bromus catharticus Vahl., BROCA). All herbicides and herbicide mixtures were formulated in water containing 1.0% (vol/vol) crop oil concentrate and applied as a spray mixture to bermudagrass using a backpack sprayer pressurized with CO2.

[3] = tested on: rescuegrass (Bromus catharticus Vahl., BROCA); assay: Test E field plots: rescuegrass control
Source text: as §1, §2, §4

[4] = tested on: bermudagrass (Cynodon dactylon, CYNDA); assay: Test C field plots: bermudagrass phytotoxic response
Source text: as §1, §2
(§5) Herbicides and herbicide mixtures were applied to field plots of bermudagrass (Cynodon dactylon, CYNDA) near De Leon, Tex., Yukon, Okla. and Burlington, Okla. to control field sandbur (Cenchrus incertus M. A. Curtis, CCHIN) approximately one week after the bermudagrass had been cut and harvested. All herbicides and herbicide mixtures were formulated in water containing 0.25% (vol/vol) non-ionic surfactant (“NIS” provided by INDUCE®) and applied as a spray mixture to bermudagrass stubble using a backpack sprayer pressurized with CO2.

[5] = tested on: field sandbur (Cenchrus incertus M. A. Curtis, CCHIN); assay: Test C field plots: field sandbur control
Source text: as §1, §2, §5

[6] = tested on: knotroot foxtail (Setaria geniculata [Lam.] Beauv., SETGE); assay: Test D field plots: knotroot foxtail control
Source text: as §1, §2, §3

[7] = glyphosate 96 g a.i./ha, 30 DAA, Paris, AR
[8] = glyphosate 96 g a.i./ha, 60 DAA, Paris, AR
[9] = glyphosate 192 g a.i./ha, 15 DAA, Lena, MS
[10] = glyphosate 192 g a.i./ha, 30 DAA, Paris, AR
[11] = glyphosate 192 g a.i./ha, 60 DAA, Paris, AR
[12] = glyphosate 289 g a.i./ha, 15 DAA, Lena, MS
[13] = glyphosate 289 g a.i./ha, 30 DAA, Paris, AR
[14] = glyphosate 289 g a.i./ha, 60 DAA, Paris, AR
[15] = glyphosate 144 g a.i./ha, 30 DAA, Decatur, TX
[16] = glyphosate 144 g a.i./ha, 45 DAA, Eatonton, GA
[17] = glyphosate 144 g a.i./ha, 60 DAA, Decatur, TX
[18] = glyphosate 289 g a.i./ha, 30 DAA, Decatur, TX
[19] = glyphosate 289 g a.i./ha, 45 DAA, Eatonton, GA
[20] = glyphosate 289 g a.i./ha, 60 DAA, Decatur, TX
[21] = glyphosate 96 g a.i./ha, 15 DAA, De Leon, TX
[22] = glyphosate 96 g a.i./ha, 30 DAA, Yukon, OK
[23] = glyphosate 96 g a.i./ha, 90 DAA, Yukon, OK and Burlington, OK
[24] = glyphosate 192 g a.i./ha, 15 DAA, De Leon, TX
[25] = glyphosate 192 g a.i./ha, 30 DAA, Yukon, OK
[26] = glyphosate 192 g a.i./ha, 90 DAA, Yukon, OK and Burlington, OK
[27] = glyphosate 289 g a.i./ha, 15 DAA, De Leon, TX
[28] = glyphosate 289 g a.i./ha, 30 DAA, Yukon, OK
[29] = glyphosate 289 g a.i./ha, 90 DAA, Yukon, OK and Burlington, OK
[30] = nicosulfuron 39 g a.i./ha, 30 DAA, Paris, AR
[31] = nicosulfuron 39 g a.i./ha, 60 DAA, Paris, AR
[32] = nicosulfuron 39 g a.i./ha, 30 DAA, Decatur, TX
[33] = nicosulfuron 39 g a.i./ha, 45 DAA, Eatonton, GA
[34] = nicosulfuron 39 g a.i./ha, 60 DAA, Decatur, TX
[35] = nicosulfuron 39 g a.i./ha, 15 DAA, De Leon, TX
[36] = nicosulfuron 39 g a.i./ha, 30 DAA, Yukon, OK
[37] = nicosulfuron 39 g a.i./ha, 90 DAA, Yukon, OK and Burlington, OK

O=C(O)CNCP(=O)(O)O [Glyphosate, glyphosate]
CYNDA (% phyto) Observed [1, 7]: 0%
CYNDA (% phyto) Observed [1, 8]: 0%
CYNDA (% phyto) Observed [1, 9]: 18%
CYNDA (% phyto) Observed [1, 10]: 2%
CYNDA (% phyto) Observed [1, 11]: 0%
CYNDA (% phyto) Observed [1, 12]: 20%
CYNDA (% phyto) Observed [1, 13]: 11%
CYNDA (% phyto) Observed [1, 14]: 0%
CYNDA (% phyto) Observed [2, 15]: 0%
CYNDA (% phyto) Observed [2, 16]: 0%
CYNDA (% phyto) Observed [2, 17]: 0%
CYNDA (% phyto) Observed [2, 18]: 0%
CYNDA (% phyto) Observed [2, 19]: 0%
CYNDA (% phyto) Observed [2, 20]: 0%
BROCA (% control) Observed ([3]; glyphosate 144 g a.i./ha, 15 DAA, Eatonton, GA): 0%
BROCA (% control) Observed [3, 15]: 0%
BROCA (% control) Observed [3, 16]: 88%
BROCA (% control) Observed [3, 17]: 0%
BROCA (% control) Observed ([3]; glyphosate 289 g a.i./ha, 15 DAA, Eatonton, GA): 87%
BROCA (% control) Observed [3, 18]: 0%
BROCA (% control) Observed [3, 19]: 95%
BROCA (% control) Observed [3, 20]: 0%
CYNDA (% phyto) Observed [4, 21]: 0%
CYNDA (% phyto) Observed [4, 22]: 0%
CYNDA (% phyto) Observed [4, 23]: 0%
CYNDA (% phyto) Observed [4, 24]: 5%
CYNDA (% phyto) Observed [4, 25]: 0%
CYNDA (% phyto) Observed [4, 26]: 0%
CYNDA (% phyto) Observed [4, 27]: 13%
CYNDA (% phyto) Observed [4, 28]: 0%
CYNDA (% phyto) Observed [4, 29]: 0%
CCHIN (% control) Observed [5, 21]: 60%
CCHIN (% control) Observed [5, 22]: 2%
CCHIN (% control) Observed [5, 23]: 55%
CCHIN (% control) Observed [5, 24]: 74%
CCHIN (% control) Observed [5, 25]: 18%
CCHIN (% control) Observed [5, 26]: 63%
CCHIN (% control) Observed [5, 27]: 89%
CCHIN (% control) Observed [5, 28]: 35%
CCHIN (% control) Observed [5, 29]: 75%
SETGE (% control) Observed [6, 7]: 7%
SETGE (% control) Observed [6, 8]: 3%
SETGE (% control) Observed [6, 9]: 79%
SETGE (% control) Observed [6, 10]: 28%
SETGE (% control) Observed [6, 11]: 18%
SETGE (% control) Observed [6, 12]: 84%
SETGE (% control) Observed [6, 13]: 40%
SETGE (% control) Observed [6, 14]: 20%

COc1cc(OC)nc(NC(=O)NS(=O)(=O)c2ncccc2C(=O)N(C)C)n1 [Nicosulfuron, nicosulfuron]
CYNDA (% phyto) Observed [1, 30]: 3%
CYNDA (% phyto) Observed [1, 31]: 0%
CYNDA (% phyto) Observed [2, 32]: 0%
CYNDA (% phyto) Observed [2, 33]: 0%
CYNDA (% phyto) Observed [2, 34]: 0%
BROCA (% control) Observed ([3]; nicosulfuron 39 g a.i./ha, 15 DAA, Eatonton, GA): 10%
BROCA (% control) Observed [3, 32]: 63%
BROCA (% control) Observed [3, 33]: 79%
BROCA (% control) Observed [3, 34]: 53%
CYNDA (% phyto) Observed [4, 35]: 5%
CYNDA (% phyto) Observed [4, 36]: 10%
CYNDA (% phyto) Observed [4, 37]: 0%
CCHIN (% control) Observed [5, 35]: 65%
CCHIN (% control) Observed [5, 36]: 78%
CCHIN (% control) Observed [5, 37]: 88%
SETGE (% control) Observed [6, 30]: 28%
SETGE (% control) Observed [6, 31]: 10%
